Test results reported in patent US8022072B2, “Azolylmethylidenehydrazine derivative and use thereof” (Kaken Pharmaceutical Co., Ltd., priority 2007, dated 2011).
Values after ≈ are worked out from the molar mass of the structure shown.

Experiments:
[1] = test system: Trichophyton rubrum KD-107; test: Antifungal activity evaluation test, MIC, Trichophyton rubrum KD-107; type: cell-based; settings: KD107, 168 h, Sabouraud Dextrose Broth, 30° C., 7 days, visual, read-out: MIC T. rub. KD-107
[2] = test system: Trichophyton mentagrophytes KD-04; test: Influence of keratin addition on anti-Trichophyton activity; type: cell-based; settings: Trichophyton mentagrophytes, KD04, 168 h, 30° C., 7 days
Method: The MIC increase rate by the addition of keratin to a medium was measured by the following procedure. • Test compound solution: A test compound was dissolved in dimethyl sulfoxide (DMSO) at a concentration of 5 mg/mL as a stock solution. Diluting this solution with DMSO, a 2-fold dilution series was prepared. • Test strain: Trichophyton mentagrophytes KD-04 was used. Preparation of Fungal Inoculum: the Above-Mentioned Strain was suspended in 0.05% Tween 80-containing physiological saline, and adjusted to a fungus concentration of 2×10^6 cells/mL using a counting chamber. […] The physiological saline was removed, and the mixture was further washed once with physiological saline (3 mL). The physiological saline was removed, and a test compound solution (10 μL) and Sabouraud Dextrose Broth (Difco) (500 μL) were added to keratin, and the mixture was sufficiently stirred. Then, inoculum (500 μL) of T. mentagrophytes KD-04 was added, and the mixture was cultured at 30° C. for 7 days. As a comparison control, an experiment similar to the above was performed under conditions free of keratin addition.

[3] = test system: Trichophyton mentagrophytes KD-04; test: Antifungal activity evaluation test, MIC, Trichophyton mentagrophytes KD-04; type: cell-based; settings: KD04, 168 h, Sabouraud Dextrose Broth, 30° C., 7 days, visual, read-out: MIC T. men. KD-04
TNCB-induced dermatitis = test: 2,4,6-Trinitrochlorobenzene (TNCB)-induced dermatitis model, ear edema; type: in vivo, male BALB/c mouse; settings: test compound 1 w/v % (FK506 0.1 w/v %), 20 μL applied to auricle, 24 hours after induction
Method: (§1) The test compound was adjusted to 1 w/v % when in use with a solvent (acetone:olive oil=1:1, v/v)) and put to use. FK506 (control substance) was adjusted to 0.1 w/v % and used.
The fur on the abdomen of male BALB/c mouse was shaved with a hair clipper, and 100 μL of 7 w/v % TNCB sensitizing liquid (solvent was acetone:olive oil=4:1, v/v) was applied. Six days after the sensitization, the thickness of the right auricle was measured with a micrometer (pre-value). After the measurement, 10 μL of 1 w/v % TNCB challenge liquid (solvent was acetone:olive oil=1:9, v/v) was applied to the inside of the right auricle to induce ear edema. About 5 minutes after the application of the challenge liquid, 20 μL of the test compound was applied to the outside of the auricle.
After 24 hours from the induction of ear edema, the thickness of the right auricle was measured by a method similar to the pre-value (post-value). The difference between the post-value and the pre-value of ear edema by each test compound was determined, based on which the inhibition rate was calculated. The activity of each test compound was calculated with the ear edema inhibition rate of FK506 as 1.0 (ear edema inhibition rate of each test compound/ear edema inhibition rate of FK506).

[4] = test system: Malassezia furfur IFO-0656; test: Antifungal activity evaluation test, MIC by urease activity, Malassezia furfur IFO-0656; type: cell-based; settings: IFO0656, 96 h, MU medium, 30° C., day 4 or 5, urease activity of 20% or below, read-out: MIC M. fur. IFO-0656
[5] = test system: Trichophyton rubrum KD-101; test: Antifungal activity evaluation test, MIC, Trichophyton rubrum KD-101; type: cell-based; settings: KD101, 168 h, Sabouraud Dextrose Broth, 30° C., 7 days, visual, read-out: MIC T. rub. KD-101
[6] = test system: Trichophyton mentagrophytes SM-110; test: Antifungal activity evaluation test, MIC, Trichophyton mentagrophytes SM-110; type: cell-based; settings: SM110, 168 h, Sabouraud Dextrose Broth, 30° C., 7 days, visual, read-out: MIC T. men. SM-110
OVA-induced dermatitis = test: Ovalbumin (OVA)-induced dermatitis model, ear edema; type: in vivo, male ICR mouse; design: key: ratio of compound's ear edema inhibition rate to FK506's (FK506 = 1.0); settings: test compound 1 w/v % (FK506 0.1 w/v %), 20 μL applied to auricle, 24 hours after induction
Method: as §1
Male ICR mouse was sensitized by the administration of 0.2 mL of OVA-hydroxide aluminum gel suspension to the abdominal cavity. After 14 days from the sensitization, the thickness of the right auricle was measured with a micrometer (pre-value). After the measurement, 20 μL of 0.5 μg/mL OVA challenge liquid (solvent was physiological saline) was subcutaneously administered to the inside of the auricle to induce ear edema. About 5 minutes after the administration of the challenge liquid, 20 μL of the test compound was applied to the outside of the auricle. After 24 hours from the induction of ear edema, the thickness of the right auricle was measured by a method similar to the pre-value (post-value). The difference between the post-value and the pre-value of ear edema by each test compound was determined, based on which the inhibition rate was calculated. The activity of each test compound was calculated with the ear edema inhibition rate of FK506 as 1.0 (ear edema inhibition rate of each test compound/ear edema inhibition rate of FK506).

[7] = T. mentagrophytes KD-04, free of keratin addition, read-out: MIC SDB alone
[8] = T. mentagrophytes KD-04, keratin 50 mg added, read-out: MIC SDB + keratin

| MIC [1] [µg/mL] | MIC [2, 7] [µg/mL] | MIC [2, 8] [µg/mL] | MIC [3] [µg/mL] | MIC [4] [µg/mL] | MIC [5] [µg/mL] | MIC [6] [µg/mL] | Structure (SMILES) | TNCB-induced dermatitis, with ear edema inhibition rate of FK506 as 1.0 (TNCB-induced dermatitis) | OVA-induced dermatitis, with ear edema inhibition rate of FK506 as 1.0 (OVA-induced dermatitis) |
| --- | --- | --- | --- | --- | --- | --- | --- | --- | --- |
| 0.05 (≈ 0.143 µM) | 0.1 (≈ 0.285 µM) | 0.2 | 0.2 (≈ 0.571 µM) | 0.39 (≈ 1.11 µM) | 0.05 (≈ 0.143 µM) | 0.39 (≈ 1.11 µM) | COc1ccc(COc2ccccc2C(=NN(C)C)n2ccnc2)cc1 [Compound No. 52, N′-[1-imidazol-1-yl-1-[2-(4-methoxybenzyloxy)phenyl]methylidene]-N,N-dimethylhydrazine] | 0.7 | 1.1 |
| 0.05 (≈ 0.143 µM) | 0.05 (≈ 0.143 µM) | 0.1 | 0.1 (≈ 0.285 µM) | 0.39 (≈ 1.11 µM) | 0.1 (≈ 0.285 µM) | 0.2 (≈ 0.571 µM) | CN(C)N=C(c1ccccc1OCCOc1ccccc1)n1ccnc1 [Compound No. 66, N′-[1-imidazol-1-yl-1-[2-(2-phenoxyethoxy)phenyl]methylidene]-N,N-dimethylhydrazine] | 0.8 | 1.1 |
| 0.05 (≈ 0.165 µM) | 0.1 (≈ 0.331 µM) | 0.2 | 0.05 (≈ 0.165 µM) | 0.78 (≈ 2.58 µM) | 0.1 (≈ 0.331 µM) | 0.2 (≈ 0.661 µM) | CCCCSc1ccccc1C(=NN(C)C)n1ccnc1 [Compound No. 82, N′-[1-(2-butylthiophenyl)-1-imidazol-1-ylmethylidene]-N,N-dimethylhydrazine] | 0.6 | 1.1 |
